The structures appear in SMILES notation. pIC50: −log10 of the molar value.

In data set [1] the test system is Cryptococcus neoformans (ATCC 208821). Nature of the data set: Intrinsic antifungal activity (MIC) against C. neoformans. It is filed as cell-based. The following applies: ATCC208821, C. neoformans ATCC 208821, mean (n = 2), read-out: MIC C. n. How it is done: (§1) The susceptibility of bacterial strains Staphylococcus aureus (ATCC 25923), Escherichia coli (ATCC 25922) and Pseudomonas aeruginosa (ATCC 27853) to antibiotics and compounds was determined using previously reported protocols. Additional antimicrobial evaluation against MRSA (ATCC 43300), Klebsiella pneumoniae (ATCC 700603), Acinetobacter baumannii (ATCC 19606), Candida albicans (ATCC 90028) and Cryptococcus neoformans (ATCC 208821) was undertaken at the Community for Open Antimicrobial Drug Discovery at The University of Queensland (Australia) according to their standard protocols, as reported previously.

In the next data set the test system is human red blood cells. Nature of the data set: Hemolytic assay. It is filed as cell-based. The following applies: mean (n = 2). How it is done: Hemolysis assays were conducted using the protocols previously reported.
For a further data set, the system named is MRSA (ATCC 43300). Nature of the data set: Intrinsic antimicrobial activity (MIC) against MRSA. The data set is classed as cell-based. The following applies: Staphylococcus aureus, MRSA ATCC 43300; mean (n = 2); read-out: MIC MRSA. How it is done:
as §1

The subject of data set [2] is Escherichia coli (ATCC 25922). Nature of the data set: Intrinsic antimicrobial activity (MIC) against E. coli. It is filed as cell-based. The following applies: ATCC25922, E. coli ATCC 25922, mean (n = 3), read-out: MIC E. c. How it is done: as §1
A further data set in a line: Cytotoxicity assay. The data set is classed as cell-based. The note with it: human; HEK293 cells; mean (n = 2); read-out: Cytotoxicity: concentration of compound at 50% cytotoxicity (IC50). How it is done: Cytotoxicity assays were conducted using the protocols previously reported.
For data set [3], the system named is Pseudomonas aeruginosa (ATCC 27853). The data set can be described thus: Intrinsic antimicrobial activity (MIC) against P. aeruginosa. The data set is classed as cell-based. The following applies: ATCC27853, P. aeruginosa ATCC 27853, mean (n = 3), read-out: MIC P. a. How it is done:
as §1

For the next data set, the system named is P. aeruginosa ATCC 27853. Nature of the data set: Enhancement of doxycycline action against P. aeruginosa. The note with it: doxycycline at 4.5 µM. The data set is classed as cell-based, Pseudomonas aeruginosa. How it is done:
(§2) Antibiotic enhancer concentrations were determined using previously reported protocols.

Data set [4] has as its system Staphylococcus aureus (ATCC 25923). Nature of the data set: Intrinsic antimicrobial activity (MIC) against S. aureus. It is filed as cell-based. The following applies: ATCC25923, S. aureus ATCC 25923, mean (n = 3), read-out: MIC S. a. How it is done:
as §1

Data set [5] concerns Candida albicans (ATCC 90028). The data set can be described thus: Intrinsic antifungal activity (MIC) against C. albicans. The data set is classed as cell-based. The following applies: ATCC90028, C. albicans ATCC 90028, mean (n = 2), read-out: MIC C. a. How it is done:
as §1

A further data set concerns E. coli ATCC 25922. Nature of the data set: Enhancement of erythromycin action against E. coli. It is filed as cell-based, Escherichia coli. The following applies: erythromycin at 10.9 µM. How it is done:
as §2

Turning to `O=C(Cc1c[nH]c2c(F)cccc12)NCCCNCCCCCCCCCCCCNCCCNC(=O)Cc1c[nH]c2c(F)cccc12.O=C(O)C(F)(F)F.O=C(O)C(F)(F)F` [Compound 18f, N^1,N^12-Bis(3-(2-(7-fluoro-1H-indol-3-yl)acetamido)propyl)dodecane-1,12-diaminium 2,2,2-trifluoroacetate], the MIC in [1] is ≤ 0.28 µM; with MRSA (ATCC 43300) it was ≤ 0.28 µM; in data set [2] it was 28 µM; in data set [3], 224 µM; in data set [4], 7 µM; in data set [5], ≤ 0.28 µM. The “Hemolysis: concentration of compound at 10% hemolytic activity (HC10)” value (“Hemolysis … at 10% hemolytic activity (HC10)” below) in the data set on human red blood cells is on record as ≤0.28 µM. Moreover, in “Cytotoxicity assay”, the pIC50 was 4.57. Further, in the data set on P. aeruginosa ATCC 27853, the “Dox/P. a fold change (ratio between intrinsic MIC of the test compound and combination MIC)” value came to 1 fold. Besides, the “Dox/P. a: concentration required to restore doxycycline activity (combination MIC)” value (“Dox/P. a: concentration required” below) with P. aeruginosa ATCC 27853 was found to be 224 µM. Moreover, the “Eryth/E. c: concentration required to restore erythromycin activity (combination MIC)” value (“Eryth/E. c: concentration required” for short) with E. coli ATCC 25922 stood at 14.0 µM.
In the case of `COc1cccc2c(CC(=O)NCCCNCCCCNCCCNC(=O)Cc3c[nH]c4c(OC)cccc34)c[nH]c12.O=C(O)C(F)(F)F.O=C(O)C(F)(F)F` [Compound 19a, N^1,N^4-Bis(3-(2-(7-methoxy-1H-indol-3-yl)acetamido)propyl)butane-1,4-diaminium 2,2,2-trifluoroacetate], the MIC was 19.9 µM in data set [1]; 19.9 µM in the data set on MRSA (ATCC 43300); > 249 µM in [2]; > 249 µM in [3]; 124 µM in [4]; > 40 µM in [5]. In the data set with human red blood cells, the “Hemolysis … at 10% hemolytic activity (HC10)” value is reported as >40 µM. In addition, the pIC50 in “Cytotoxicity assay” is < 4.40. Further, in the data set with P. aeruginosa ATCC 27853, the “Dox/P. a fold change (ratio between intrinsic MIC of the test compound and combination MIC)” value is 1 fold. Further, the “Dox/P. a: concentration required” value in the data set on P. aeruginosa ATCC 27853 was > 249 µM. Further, the “Eryth/E. c: concentration required” value with E. coli ATCC 25922 is listed as > 249 µM.
With `COc1cccc2c(CC(=O)NCCCNCCCCCCCCNCCCNC(=O)Cc3c[nH]c4c(OC)cccc34)c[nH]c12.O=C(O)C(F)(F)F.O=C(O)C(F)(F)F` [Compound 19d, N^1,N^8-Bis(3-(2-(7-methoxy-1H-indol-3-yl)acetamido)propyl)octane-1,8-diaminium 2,2,2-trifluoroacetate], the MIC was ≤ 0.29 µM in [1]; 37.2 µM in the data set with MRSA (ATCC 43300); > 232 µM in data set [2]; > 232 µM in data set [3]; 116 µM in data set [4]; > 37 µM in [5]. For the same compound, the “Hemolysis … at 10% hemolytic activity (HC10)” value in the data set with human red blood cells is >37 µM. The pIC50 in “Cytotoxicity assay” is < 4.43. Besides, the “Dox/P. a fold change (ratio between intrinsic MIC of the test compound and combination MIC)” value in the data set on P. aeruginosa ATCC 27853 was 1 fold. In the data set on P. aeruginosa ATCC 27853, the “Dox/P. a: concentration required” value was > 232 µM. Moreover, the “Eryth/E. c: concentration required” value with E. coli ATCC 25922 is recorded as > 232 µM.
With `COc1cccc2c(CC(=O)NCCCNCCCCCCCCCCCCNCCCNC(=O)Cc3c[nH]c4c(OC)cccc34)c[nH]c12.O=C(O)C(F)(F)F.O=C(O)C(F)(F)F` [Compound 19f, N^1,N^12-Bis(3-(2-(7-methoxy-1H-indol-3-yl)acetamido)propyl)dodecane-1,12-diaminium 2,2,2-trifluoroacetate], the MIC was ≤ 0.27 µM in [1]; ≤ 0.27 µM in the data set with MRSA (ATCC 43300); 109 µM in data set [2]; > 218 µM in data set [3]; 13.6 µM in data set [4]; 34.9 µM in data set [5]. The “Hemolysis … at 10% hemolytic activity (HC10)” value with human red blood cells turned out to be 10.7 µM. In addition, the pIC50 in the data set “Cytotoxicity assay” was < 4.46. The “Dox/P. a fold change (ratio between intrinsic MIC of the test compound and combination MIC)” value in the data set on P. aeruginosa ATCC 27853 is given as > 1 fold. The “Dox/P. a: concentration required” value in the data set on P. aeruginosa ATCC 27853 came to 218 µM. The “Eryth/E. c: concentration required” value in the data set on E. coli ATCC 25922 was found to be 109 µM.
Take `Cc1cccc2c(CC(=O)NCCCNCCCCNCCCNC(=O)Cc3c[nH]c4c(C)cccc34)c[nH]c12.O=C(O)C(F)(F)F.O=C(O)C(F)(F)F` [Compound 20a, N^1,N^4-Bis(3-(2-(7-methyl-1H-indol-3-yl)acetamido)propyl)butane-1,4-diaminium 2,2,2-trifluoroacetate]: the MIC was ≤ 0.32 µM in data set [1]; ≤ 0.32 µM in the data set on MRSA (ATCC 43300); 259 µM in data set [2]; > 259 µM in data set [3]; 32.3 µM in data set [4]; 41.4 µM in [5]. Moreover, the “Hemolysis … at 10% hemolytic activity (HC10)” value with human red blood cells was found to be 4.11 µM. Further, the pIC50 in the data set “Cytotoxicity assay” was < 4.39. In addition, the “Dox/P. a fold change (ratio between intrinsic MIC of the test compound and combination MIC)” value with P. aeruginosa ATCC 27853 is 1 fold. The “Dox/P. a: concentration required” value in the data set with P. aeruginosa ATCC 27853 was > 259 µM. Moreover, in the data set on E. coli ATCC 25922, the “Eryth/E. c: concentration required” value is on record as 64.7 µM.
In the case of `Cc1cccc2c(CC(=O)NCCCNCCCCCCNCCCNC(=O)Cc3c[nH]c4c(C)cccc34)c[nH]c12.O=C(O)C(F)(F)F.O=C(O)C(F)(F)F` [Compound 20b, N^1,N^6-Bis(3-(2-(7-methyl-1H-indol-3-yl)acetamido)propyl)hexane-1,6-diaminium 2,2,2-trifluoroacetate], the MIC in data set [1] is ≤ 0.31 µM; in the data set on MRSA (ATCC 43300) it was ≤ 0.31 µM; in data set [2], 250 µM; in data set [3], > 250 µM; in data set [4], 62.4 µM; in data set [5], 40 µM. In the data set on human red blood cells, the “Hemolysis … at 10% hemolytic activity (HC10)” value was determined as 9.24 µM. Also, in the data set “Cytotoxicity assay”, the pIC50 is < 4.40. The “Dox/P. a fold change (ratio between intrinsic MIC of the test compound and combination MIC)” value in the data set with P. aeruginosa ATCC 27853 is > 1 fold. Also, the “Dox/P. a: concentration required” value in the data set with P. aeruginosa ATCC 27853 stood at 250 µM. Moreover, the “Eryth/E. c: concentration required” value in the data set with E. coli ATCC 25922 turned out to be 62.4 µM.
Take `Cc1cccc2c(CC(=O)NCCCNCCCCCCCCCCNCCCNC(=O)Cc3c[nH]c4c(C)cccc34)c[nH]c12.O=C(O)C(F)(F)F.O=C(O)C(F)(F)F` [Compound 20e, N^1,N^10-Bis(3-(2-(7-methyl-1H-indol-3-yl)acetamido)propyl)decane-1,10-diaminium 2,2,2-trifluoroacetate]: the MIC was ≤ 0.29 µM in data set [1]; ≤ 0.29 µM in the data set on MRSA (ATCC 43300); > 233 µM in data set [2]; > 233 µM in data set [3]; 233 µM in data set [4]; 18.7 µM in data set [5]. In the data set on human red blood cells, the “Hemolysis … at 10% hemolytic activity (HC10)” value turned out to be 12.7 µM. Moreover, the pIC50 in “Cytotoxicity assay” was < 4.43. Besides, in the data set on P. aeruginosa ATCC 27853, the “Dox/P. a fold change (ratio between intrinsic MIC of the test compound and combination MIC)” value is on record as 1 fold. Also, the “Dox/P. a: concentration required” value in the data set with P. aeruginosa ATCC 27853 is listed as > 233 µM. Moreover, the “Eryth/E. c: concentration required” value in the data set with E. coli ATCC 25922 was > 233 µM.
Consider `Cc1cccc2c(CC(=O)NCCCNCCCCCCCCCCCCNCCCNC(=O)Cc3c[nH]c4c(C)cccc34)c[nH]c12.O=C(O)C(F)(F)F.O=C(O)C(F)(F)F` [Compound 20f, N^1,N^12-Bis(3-(2-(7-methyl-1H-indol-3-yl)acetamido)propyl)dodecane-1,12-diaminium 2,2,2-trifluoroacetate], for which the MIC in data set [1] was ≤ 0.28 µM; with MRSA (ATCC 43300) it was ≤ 0.28 µM; in data set [2], 56.5 µM; in [3] it was > 226 µM; in [4] it was 28.2 µM; in data set [5] it was ≤ 0.28 µM. Also, the “Hemolysis … at 10% hemolytic activity (HC10)” value with human red blood cells is ≤0.28 µM. For the same compound, the pIC50 in the data set “Cytotoxicity assay” is < 4.44. In the data set on P. aeruginosa ATCC 27853, the “Dox/P. a fold change (ratio between intrinsic MIC of the test compound and combination MIC)” value is listed as 1 fold. The “Dox/P. a: concentration required” value in the data set with P. aeruginosa ATCC 27853 was > 226 µM. In the data set on E. coli ATCC 25922, the “Eryth/E. c: concentration required” value came out at 28.2 µM.

Values taken from PMC10452110, “Indole-3-Acetamido-Polyamines as Antimicrobial Agents and Antibiotic Adjuvants” (Biomolecules, 2023).
